Measured values: US9266859B2, “Azetidinyloxyphenylpyrrolidine compounds” (Eli Lilly and Company, priority 2013, dated 2016)
Where “and” joins values, the source holds several entries; their conditions need not be identical. Equal entries are not always repeated.

Experiments:
PDE4B = target: T1, PDE4B (Homo sapiens, UniProt Q07343); test: PDE4 Inhibition In Vitro Assay; type: biochemical; settings: human recombinant PDE4B
T1 construct: made in house; host or cells: Saccharomyces cerevisiae lacking endogenous PDEs
Method: The phosphodiesterase assays are performed essentially according to the method described in Loughney, K., et al., J. Biol. Chem., 271, pp. 796-806 (1996). PDE4A, PDE4B, PDE4C, PDE4D, and PDE5 human recombinant proteins are expressed and purified from Saccharomyes cerevisiae that lack endogenous PDEs. The phosphodiesterase enzymes are diluted on ice with enzyme dilution buffer (25 mM Tris, pH 7.5, 0.1 mM DTT, 5.0 mM MgCl2, 100 mM NaCl, 5 μM ZnSO4, 100 μg/mL BSA) to give approximately 20%-40% hydrolysis of cyclic nucleotide monophosphate (cNMP) in the absence of inhibitor.
The stock solution of test compounds are diluted on the Beckman BioMek™ 1000 workstation to span a concentration range of 4.5 log units in 0.5 log increments. The DMSO concentration in the final test system is 2.5% for all PDE enzymes. The final test compound concentration tested ranged from 0.03 nM to 1 μM.
The assay is performed in a 96-well microtiter plate format on a Beckman BioMek™ 1000 robotic station. […] The amount of radioactivity released as phosphate is determined in a Wallac MicroBeta Plate™ counter.
The reduced data at each concentration of inhibitor is analyzed using a four-, three- or two-parameter logistic dose response model to provide an IC50 value.

[1] = tested on: chronic cyclophosphamide (CYP)-induced overactive bladder mouse model; test: Overactive Bladder In Vivo Model (chronic cyclophosphamide-induced)
Method: The in vivo effect of PDE4 inhibitors on OAB is studied with a chronic cyclophosphamide (CYP)-induced overactive bladder mouse model adapted from Boudes et al., Neurourol. Urodynam. 2011. In a typical study, female C57/Bl6 mice, approximately 20 grams in body weight (Harlan Laboratories, Inc., Indianapolis, Ind.) are used. Mice are randomized by body weight into groups one day before the start of the study. Mice are individually housed and maintained on a 12 hour light/dark cycle at 22° C. with ad lib access to food (TD 2014 with 0.72% Ca and 0.61% P, 990 IU/g D3, Teklad™, Madison, Wis.) and water. Animals receive cyclophosphamide (dissolved in physiological saline) i.p. administration at 100 mg/kg on days 1, 3, 5, and 7 to chronically induce OAB. The vehicle control group received daily vehicle (HEC 1%/Tween 80 0.25%/Antifoam 0.05%) administered orally. All other groups are administered orally tadalafil at 10 mg/kg in combination with 0.1, 1.0, or 10.0 mg/kg of test compound daily at a volume of 200 μl/mouse. On day 8, mice are housed in urine collection chambers with a filter paper placed underneath chamber. Prior to urine collection, gavages of 1 ml water are given to each mouse. Urine is collected from 6 pm to 10 pm (i.e. for 4 hrs). Gel cups (DietGel™76A) are supplied as water source during the 4 hour period. The filter paper is changed every hour. Voiding frequency and volume/void are calculated using Image J software (NIH). Data are statistically analyzed with JMP8® software (Cary, N.C.).
All treatment groups receive a fixed dose of 10 mg/kg of tadalafil.

[2] = Example 2 0.1, 1.0, 10.0 mg/kg given with tadalafil 10 mg/kg

T1 sequence (Q07343 whole entry): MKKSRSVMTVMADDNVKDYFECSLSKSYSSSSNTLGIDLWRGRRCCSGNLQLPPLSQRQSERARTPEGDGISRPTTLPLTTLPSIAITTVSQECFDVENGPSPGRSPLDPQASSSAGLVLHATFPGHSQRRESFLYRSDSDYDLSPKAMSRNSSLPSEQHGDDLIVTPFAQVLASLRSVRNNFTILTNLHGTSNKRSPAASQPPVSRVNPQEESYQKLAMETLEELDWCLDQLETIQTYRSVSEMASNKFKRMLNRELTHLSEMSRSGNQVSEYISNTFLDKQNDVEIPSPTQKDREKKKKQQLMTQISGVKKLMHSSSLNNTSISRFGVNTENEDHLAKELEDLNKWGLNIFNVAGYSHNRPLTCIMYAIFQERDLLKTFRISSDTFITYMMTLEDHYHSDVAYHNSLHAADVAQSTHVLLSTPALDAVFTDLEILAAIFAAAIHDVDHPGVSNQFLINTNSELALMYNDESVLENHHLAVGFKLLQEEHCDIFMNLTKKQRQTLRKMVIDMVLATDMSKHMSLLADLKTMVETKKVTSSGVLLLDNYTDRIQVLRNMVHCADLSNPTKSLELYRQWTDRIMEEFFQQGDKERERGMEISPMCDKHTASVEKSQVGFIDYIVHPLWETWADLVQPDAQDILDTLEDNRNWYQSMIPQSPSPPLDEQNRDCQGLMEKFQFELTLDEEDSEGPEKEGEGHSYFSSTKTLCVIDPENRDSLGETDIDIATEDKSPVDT

COc1ccc([C@@H]2CN(C(=O)[C@@H](O)CO)C[C@@]2(C)[C@@H](C)O)cc1OC1CN(c2ccccn2)C1 [Example 1, (2S)-3-[(3S,4S)-3-[(1R)-1-hydroxyethyl]-4-{4-methoxy-3-[(1-pyridin-2-ylazetidin-3-yl)oxy]phenyl}-3-methylpyrrolidin-1-yl]-3-oxopropane-1,2-diol]
IC50 (PDE4B): < 10 nM

COc1ccc([C@@H]2CN(C(=O)[C@@H](O)CO)C[C@@]2(C)[C@@H](C)O)cc1OC1CN(c2ccc(C)cn2)C1 [Example 2, (2S)-3-[(3S,4S)-3-[(1R)-1-hydroxyethyl]-4-(4-methoxy-3-{[1-(5-methylpyridin-2-yl)azetidin-3-yl]oxy}phenyl)-3-methylpyrrolidin-1-yl]-3-oxopropane-1,2-diol]
IC50 (PDE4B): < 10 nM and 0.58 nM | Mean Voiding Frequency ([1]; Example 2 0.1 mg/kg + tadalafil 10 mg/kg, oral daily, day 8, CYP-treated female C57/Bl6 mice, vehicle 16.5): 10 no./4 hr | effect on urinary frequency (in words) [1, 2]: significantly reduces urinary frequency in a dose-dependent fashion | effect on volume/void (in words) [1, 2]: increases of volume/void are also observed in a dose-dependent fashion
